Experimental findings from patent US20160159816A1, “SUBSTITUTED THIENOPYRIMIDINES AND PHARMACEUTICAL USE THEREOF” (BAYER PHARMA AKTIENGESELLSCHAFT, priority 2013, published 2016) are described below.

For this test, the target named is T1, human full-length MKNK1 (Homo sapiens, UniProt Q9BUB5, T385D).
T1 construct: GST (N); purchased Carna Biosciences 02-145; host or cells: insect cells, baculovirus expression system
T1 sequence (Q9BUB5 1-424 isoform Q9BUB5-2 T344D): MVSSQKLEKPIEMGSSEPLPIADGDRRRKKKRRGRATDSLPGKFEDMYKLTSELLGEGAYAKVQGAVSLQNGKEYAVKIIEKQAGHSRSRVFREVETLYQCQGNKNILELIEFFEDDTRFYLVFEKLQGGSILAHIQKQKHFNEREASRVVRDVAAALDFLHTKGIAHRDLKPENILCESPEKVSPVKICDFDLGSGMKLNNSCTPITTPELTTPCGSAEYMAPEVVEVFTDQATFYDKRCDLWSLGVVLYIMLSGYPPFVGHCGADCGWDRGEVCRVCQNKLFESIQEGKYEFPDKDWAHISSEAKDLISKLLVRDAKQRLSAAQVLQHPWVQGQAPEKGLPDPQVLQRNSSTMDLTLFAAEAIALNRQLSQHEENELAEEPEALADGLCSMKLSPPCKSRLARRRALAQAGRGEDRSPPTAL
Kind of test: MKNK1 kinase high ATP assay (TR-FRET). Particulars: high ATP (2 mM), after preincubation with MKNK1; compounds of the present invention (Table 1a). In kind it is biochemical. The protocol: MKNK1-inhibitory activity at high ATP of compounds of the present invention after their preincubation with MKNK1 was quantified employing the TR-FRET-based MKNK1 high ATP assay as described in the following paragraphs.
A recombinant fusion protein of Glutathione-S-Transferase (GST, N-terminally) and human full-length MKNK1 (amino acids 1-424 and T344D of accession number BAA 19885.1), expressed in insect cells using baculovirus expression system and purified via glutathione sepharose affinity chromatography, was purchased from Carna Biosciences (product no 02-145) and used as enzyme. As substrate for the kinase reaction the biotinylated peptide biotin-Ahx-IKKRKLTRRKSLKG (C-terminus in amide form) was used, which can be purchased e.g. from the company Biosyntan (Berlin-Buch, Germany).
For the assay 50 nL of a 100 fold concentrated solution of the test compound in DMSO was pipetted into a black low volume 384 well microtiter plate (Greiner Bio-One, Frickenhausen, Germany), 2 μL of a solution of MKNK1 in aqueous assay buffer [50 mM HEPES pH 7.5, 5 mM MgCl2, 1.0 mM dithiothreitol, 0.005% (v/v) Nonidet-P40 (Sigma)] was added and the mixture was incubated for 15 min at 22° C. to allow pre-binding of the test compounds to the enzyme before the start of the kinase reaction. Then the kinase reaction was started by the addition of 3 μL of a solution of adenosine-tri-phosphate (ATP, 3.3 mM=>final conc. in the 5 μL assay volume is 2 mM) and substrate (0.1 μM=>final conc. in the 5 μL assay volume is 0.06 μM) in assay buffer and the resulting mixture was incubated for a reaction time of 30 min at 22° C. The concentration of MKNK1 was adjusted depending of the activity of the enzyme lot and was chosen appropriate to have the assay in the linear range, typical concentrations were in the range of 0.003 μg/mL. The reaction was stopped by the addition of 5 μL of a solution of TR-FRET detection reagents (5 nM streptavidine-XL665 [Cisbio Bioassays, Codolet, France] and 1 nM anti-ribosomal protein […] (pSer236)-antibody from Invitrogen [#44921G] and 1 nM LANCE EU-W1024 labeled ProteinG [Perkin-Elmer, product no. AD0071]) in an aqueous EDTA-solution (100 mM EDTA, 0.1% (w/v) bovine serum albumin in 50 mM HEPES pH 7.5).
The resulting mixture was incubated for 1 h at 22° C. to allow the formation of complex between the phosphorylated biotinylated peptide and the detection reagents. Subsequently the amount of phosphorylated substrate was evaluated by measurement of the resonance energy transfer from the Eu-chelate to the streptavidine-XL. Therefore, the fluorescence emissions at 620 nm and 665 nm after excitation at 350 nm were measured in a TR-FRET reader, e.g. a Rubystar (BMG Labtechnologies, Offenburg, Germany) or a Viewlux (Perkin-Elmer). The ratio of the emissions at 665 nm and at […] was taken as the measure for the amount of phosphorylated substrate. The data were normalised (enzyme reaction without inhibitor=0% inhibition, all other assay components but no enzyme=100% inhibition). […] Table 1a lists MKNK1 high ATP IC50 values of some compounds of the present invention.
For `O=C(NCC1CCc2c(sc3ncnc(Nc4ccc5[nH]ncc5c4)c23)C1)[C@@H](O)Cc1ccccc1` (mixture of isomers) [Example 14, (2R)-2-Hydroxy-N-{[(7RS)-4-(1H-indazol-5-ylamino)-5,6,7,8-tetrahydro[1]benzothieno[2,3-d]pyrimidin-7-yl]methyl}-3-phenylpropanamide], the IC50 amounted to 17 nM.
With `N[C@@H](CCO)C(=O)NCC1CCc2c(sc3ncnc(Nc4ccc5[nH]ncc5c4)c23)C1` (mixture of isomers) [Example 16, N-{[(7RS)-4-(1H-Indazol-5-ylamino)-5,6,7,8-tetrahydro[1]benzothieno[2,3-d]pyrimidin-7-yl]methyl}-L-homoserinamide] the figure was 20.8 nM; with `COc1cc2[nH]ncc2cc1Nc1ncnc2sc3c(c12)CCC(CNC(=O)[C@@H](O)Cc1ccccc1)C3` (mixture of isomers) [Example 23, (2R)-2-Hydroxy-N-({(7RS)-4-[(6-methoxy-1H-indazol-5-yl)amino]-5,6,7,8-tetrahydro[1]benzothieno[2,3-d]pyrimidin-7-yl}methyl)-3-phenylpropanamide], 5 nM; with `OCC1CCc2c(sc3ncnc(Nc4ccc5[nH]ncc5c4)c23)C1` (racemic) [Example 1, (RS)-[4-(1H-Indazol-5-ylamino)-5,6,7,8-tetrahydro[1]benzothieno[2,3-d]pyrimidin-7-yl]methanol], 31.7 nM.
Consider `CC(C)(O)C1CCc2c(sc3ncnc(Nc4ccc5[nH]ncc5c4)c23)C1` (racemic) [Example 4, (RS)-2-[4-(1H-Indazol-5-ylamino)-5,6,7,8-tetrahydro[1]benzothieno[2,3-d]pyrimidin-7-yl]propan-2-ol], for which the IC50 was found to be 39.1 nM. This IC50 and that of the compound before are within 1.5-fold of each other.
With `O=P(OCC1CCc2c(sc3ncnc(Nc4ccc5[nH]ncc5c4)c23)C1)(Oc1ccccc1)Oc1ccccc1` (racemic) [Example 5, (RS)-[4-(1H-Indazol-5-ylamino)-5,6,7,8-tetrahydro[1]benzothieno[2,3-d]pyrimidin-7-yl]methyl diphenyl phosphate] the figure was 205 nM; with `[N-]=[N+]=NCC1CCc2c(sc3ncnc(Nc4ccc5[nH]ncc5c4)c23)C1` (racemic) [Example 6, (RS)-7-(Azidomethyl)-N-(1H-indazol-5-yl)-5,6,7,8-tetrahydro[1]benzothieno[2,3-d]pyrimidin-4-amine], 124 nM; with `NCC1CCc2c(sc3ncnc(Nc4ccc5[nH]ncc5c4)c23)C1` (racemic) [Example 7, (RS)-7-(Aminomethyl)-N-(1H-indazol-5-yl)-5,6,7,8-tetrahydro[1]benzothieno[2,3-d]pyrimidin-4-amine], 155 nM.
Regarding `CC(C)NC(=O)NCC1CCc2c(sc3ncnc(Nc4ccc5[nH]ncc5c4)c23)C1` (racemic) [Example 8, (RS)-1-{[4-(1H-Indazol-5-ylamino)-5,6,7,8-tetrahydro[1]benzothieno[2,3-d]pyrimidin-7-yl]methyl}-3-propan-2-ylurea], the IC50 worked out at 34.4 nM. This IC50 is about 4.5-fold lower than that of the compound before.
Take `CC(C)OC(=O)NCC1CCc2c(sc3ncnc(Nc4ccc5[nH]ncc5c4)c23)C1` (racemic) [Example 9, (RS)-Propan-2-yl {[4-(1H-indazol-5-ylamino)-5,6,7,8-tetrahydro[1]benzothieno[2,3-d]pyrimidin-7-yl]methyl}carbamate]: inhibition was half-maximal at 30.2 nM (IC50).
`CC(C)C(=O)NCC1CCc2c(sc3ncnc(Nc4ccc5[nH]ncc5c4)c23)C1` (racemic) [Example 10, (RS)—N-{[4-(1H-Indazol-5-ylamino)-5,6,7,8-tetrahydro[1]benzothieno[2,3-d]pyrimidin-7-yl]methyl}-2-methylpropanamide] registered an IC50 of 11 nM.
With `CC(C)S(=O)(=O)NCC1CCc2c(sc3ncnc(Nc4ccc5[nH]ncc5c4)c23)C1` (racemic) [Example 11, (RS)—N-{[4-(1H-Indazol-5-ylamino)-5,6,7,8-tetrahydro[1]benzothieno[2,3-d]pyrimidin-7-yl]methyl}propane-2-sulfonamide] the figure was 16.4 nM.
With `CC(O)C(=O)NCC1CCc2c(sc3ncnc(Nc4ccc5[nH]ncc5c4)c23)C1` (racemic) [Example 12, (2RS)-2-Hydroxy-N-{[(7RS)-4-(1H-indazol-5-ylamino)-5,6,7,8-tetrahydro[1]benzothieno[2,3-d]pyrimidin-7-yl]methyl}propanamide] the figure was 19.6 nM.
Regarding `CC(C)(O)C(=O)NCC1CCc2c(sc3ncnc(Nc4ccc5[nH]ncc5c4)c23)C1` (racemic) [Example 13, (RS)-2-Hydroxy-N-{[4-(1H-indazol-5-ylamino)-5,6,7,8-tetrahydro[1]benzothieno[2,3-d]pyrimidin-7-yl]methyl}-2-methylpropanamide], the IC50 was found to be 12.4 nM.
`COc1cc2[nH]ncc2cc1Nc1ncnc2sc3c(c12)CCC(CO)C3` (racemic) [Example 17, (RS)-{4-[(6-Methoxy-1H-indazol-5-yl)amino]-5,6,7,8-tetrahydro[1]benzothieno[2,3-d]pyrimidin-7-yl}methanol] displayed an IC50 of 3.2 nM.
`COc1cc2[nH]ncc2cc1Nc1ncnc2sc3c(c12)CCC(CN=[N+]=[N-])C3` (racemic) [Example 18, (RS)-7-(Azidomethyl)-N-(6-methoxy-1H-indazol-5-yl)-5,6,7,8-tetrahydro[1]benzothieno[2,3-d]pyrimidin-4-amine]: the IC50 came to 23.9 nM. Compared with the last compound, the IC50 is about 7.5-fold higher.
`COc1cc2[nH]ncc2cc1Nc1ncnc2sc3c(c12)CCC(CN)C3` (racemic) [Example 19, (RS)-7-(aminomethyl)-N-(6-methoxy-1H-indazol-5-yl)-5,6,7,8-tetrahydro[1]benzothieno[2,3-d]pyrimidin-4-amine]: the midpoint of inhibition, the IC50, lay at 6.2 nM.
With `COc1cc2[nH]ncc2cc1Nc1ncnc2sc3c(c12)CCC(CNC(=O)NC(C)C)C3` (racemic) [Example 20, (RS)-1-({4-[(6-Methoxy-1H-indazol-5-yl)amino]-5,6,7,8-tetrahydro[1]benzothieno[2,3-d]pyrimidin-7-yl}methyl)-3-propan-2-ylurea] the figure was 3.1 nM; with `COc1cc2[nH]ncc2cc1Nc1ncnc2sc3c(c12)CCC(CNC(=O)C(C)C)C3` (racemic) [Example 21, (RS)—N-({4-[(6-Methoxy-1H-indazol-5-yl)amino]-5,6,7,8-tetrahydro[1]benzothieno[2,3-d]pyrimidin-7-yl}methyl)-2-methylpropanamide], 2.1 nM.
With `COc1cc2[nH]ncc2cc1Nc1ncnc2sc3c(c12)CCC(CNC(=O)C(C)(C)O)C3` (racemic) [Example 22, (RS)-2-Hydroxy-N-({4-[(6-methoxy-1H-indazol-5-yl)amino]-5,6,7,8-tetrahydro[1]benzothieno[2,3-d]pyrimidin-7-yl}methyl)-2-methylpropanamide] the figure was 4 nM; with `Cc1cc2[nH]ncc2cc1Nc1ncnc2sc3c(c12)CCC(C)C3` (racemic) [Example 25, (RS)-7-Methyl-N-(6-methyl-1H-indazol-5-yl)-5,6,7,8-tetrahydro[1]benzothieno[2,3-d]pyrimidin-4-amine], 124 nM; with `CC1CCc2c(sc3ncnc(Nc4cc5cn[nH]c5cc4Cl)c23)C1` (racemic) [Example 26, (RS)—N-(6-Chloro-1H-indazol-5-yl)-7-methyl-5,6,7,8-tetrahydro[1]benzothieno[2,3-d]pyrimidin-4-amine], 327 nM.
Next, `COc1cc2[nH]ncc2cc1Nc1ncnc2sc3c(c12)CCC(C)C3` (racemic) [Example 27, (RS)—N-(6-Methoxy-1H-indazol-5-yl)-7-methyl-5,6,7,8-tetrahydro[1]benzothieno[2,3-d]pyrimidin-4-amine]: 66.3 nM.
With `CC1CCc2c(sc3ncnc(Nc4cc5cn[nH]c5cc4F)c23)C1` (racemic) [Example 28, (RS)—N-(6-Fluoro-1H-indazol-5-yl)-7-methyl-5,6,7,8-tetrahydro[1]benzothieno[2,3-d]pyrimidin-4-amine], half-maximal inhibition (IC50) was put at 67.1 nM.

The IC50 is the point on the concentration scale where inhibition reaches its midpoint. A low value points to inhibition by little substance.
